Measurements as given in publication PMC3917699, “Glucoamylase of Caulobacter crescentus CB15: cloning and expression in Escherichia coli and functional identification” (AMB Express, 2014).

Molecular target: T1, CauloGA (Protein A-CauloGA fusion) (Caulobacter vibrioides, UniProt Q9A613)
T1 construct: gene CC_2282; putative signal peptide removed; N-terminal Staphylococcus Protein A (synthetic ZZ domain) fusion kept; pEZZ18, E. coli HB101; IgG Sepharose; fusion 96 kDa, CauloGA about 82 kDa
Test: initial rate, glucose release (F-kit D-glucose), nonlinear regression
Type: biochemical
Details: apparent substrate inhibition constant
Text: initial rate, glucose release (F-kit D-glucose), nonlinear regression on CauloGA (Protein A-CauloGA fusion)

T1 sequence (Q9A613 entry or part of it): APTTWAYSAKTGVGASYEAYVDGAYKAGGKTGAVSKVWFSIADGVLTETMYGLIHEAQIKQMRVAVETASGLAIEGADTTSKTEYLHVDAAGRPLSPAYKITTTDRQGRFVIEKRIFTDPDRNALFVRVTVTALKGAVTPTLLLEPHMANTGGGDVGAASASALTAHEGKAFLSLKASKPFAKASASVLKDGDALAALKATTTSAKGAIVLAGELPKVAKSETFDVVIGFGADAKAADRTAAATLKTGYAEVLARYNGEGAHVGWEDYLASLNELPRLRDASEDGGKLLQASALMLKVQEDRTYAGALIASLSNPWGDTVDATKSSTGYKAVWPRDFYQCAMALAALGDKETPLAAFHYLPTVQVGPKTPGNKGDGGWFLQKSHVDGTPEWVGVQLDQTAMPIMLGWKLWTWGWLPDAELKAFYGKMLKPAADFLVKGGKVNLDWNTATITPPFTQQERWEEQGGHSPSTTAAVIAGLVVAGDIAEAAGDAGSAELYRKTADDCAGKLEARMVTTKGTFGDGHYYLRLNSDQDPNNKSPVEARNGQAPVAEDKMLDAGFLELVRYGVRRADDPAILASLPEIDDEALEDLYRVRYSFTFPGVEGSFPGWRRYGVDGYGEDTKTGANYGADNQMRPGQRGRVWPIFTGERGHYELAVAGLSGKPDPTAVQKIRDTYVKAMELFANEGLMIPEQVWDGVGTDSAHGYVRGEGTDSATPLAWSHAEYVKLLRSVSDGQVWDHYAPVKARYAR

SMILES | Ki^b (0-9 mM substrate, pH 5.0, 30°C) [µM] | also measured
OC[C@H]1O[C@H](O[C@H]2[C@H](O)[C@@H](O)[C@@H](O[C@H]3[C@H](O)[C@@H](O)[C@@H](O[C@H]4[C@H](O)[C@@H](O)[C@@H](O[C@H]5[C@H](O)[C@@H](O)C(O)O[C@@H]5CO)O[C@@H]4CO)O[C@@H]3CO)O[C@@H]2CO)[C@H](O)[C@@H](O)[C@@H]1O (stereo partly drawn) [Maltopentaose] | 920 ± 40 | 
OC[C@H]1O[C@H](O[C@H]2[C@H](O)[C@@H](O)[C@@H](O[C@H]3[C@H](O)[C@@H](O)C(O)O[C@@H]3CO)O[C@@H]2CO)[C@H](O)[C@@H](O)[C@@H]1O (stereo partly drawn) [Maltotriose] |  | Ki^b (0-18 mM substrate, pH 5.0, 30°C, text b46 prints approximately 4.2 mM): 4490 ± 310 µM
OC[C@H]1O[C@H](O[C@H]2[C@H](O)[C@@H](O)[C@@H](O[C@H]3[C@H](O)[C@@H](O)[C@@H](O[C@H]4[C@H](O)[C@@H](O)C(O)O[C@@H]4CO)O[C@@H]3CO)O[C@@H]2CO)[C@H](O)[C@@H](O)[C@@H]1O (stereo partly drawn) [Maltotetraose] |  | Ki^b (0-18 mM substrate, pH 5.0, 30°C): 1100 ± 60 µM
OC[C@H]1O[C@H](O[C@H]2[C@H](O)[C@@H](O)C(O)O[C@@H]2CO)[C@H](O)[C@@H](O)[C@@H]1O (stereo partly drawn) [Maltose] |  | Ki^b (0-18 mM substrate, 50 mM acetate buffer pH 5.0, 30°C): 38200 ± 1110 µM
OC[C@H]1O[C@H](O[C@H]2[C@H](O)[C@@H](O)[C@@H](O[C@H]3[C@H](O)[C@@H](O)[C@@H](O[C@H]4[C@H](O)[C@@H](O)[C@@H](O[C@H]5[C@H](O)[C@@H](O)[C@@H](O[C@H]6[C@H](O)[C@@H](O)[C@@H](O[C@H]7[C@H](O)[C@@H](O)C(O)O[C@@H]7CO)O[C@@H]6CO)O[C@@H]5CO)O[C@@H]4CO)O[C@@H]3CO)O[C@@H]2CO)[C@H](O)[C@@H](O)[C@@H]1O (stereo partly drawn) [Maltoheptaose] | 1250 ± 250 | 
OC[C@H]1O[C@H](O[C@H]2[C@H](O)[C@@H](O)[C@@H](O[C@H]3[C@H](O)[C@@H](O)[C@@H](O[C@H]4[C@H](O)[C@@H](O)[C@@H](O[C@H]5[C@H](O)[C@@H](O)[C@@H](O[C@H]6[C@H](O)[C@@H](O)C(O)O[C@@H]6CO)O[C@@H]5CO)O[C@@H]4CO)O[C@@H]3CO)O[C@@H]2CO)[C@H](O)[C@@H](O)[C@@H]1O (stereo partly drawn) [Maltohexaose] | 1050 ± 80 | 
